Where two headings read alike, the source gives them in different places.
Target: T1, human leukocyte elastase (Homo sapiens, UniProt P08246)
T1 sequence (P08246 30-267): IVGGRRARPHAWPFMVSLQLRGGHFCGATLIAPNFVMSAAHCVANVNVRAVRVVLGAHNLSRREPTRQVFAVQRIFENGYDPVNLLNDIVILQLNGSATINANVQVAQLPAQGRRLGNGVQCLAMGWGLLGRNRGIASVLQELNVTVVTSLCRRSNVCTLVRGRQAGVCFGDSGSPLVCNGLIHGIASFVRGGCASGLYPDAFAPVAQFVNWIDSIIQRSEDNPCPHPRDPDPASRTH
Assay: elastase inhibition using human leukocyte elastase (kon and Ki*)
Type: biochemical
Settings: for Ki: Ki* = koff/kon; for kon: read-out: Elastase 10^-3 × kon

[1] = rate of inactivation of enzyme, value is 10^-3 × kon

Protocol: Thus, instead of measuring a Ki, a Ki * is calculated which is defined as the ratio of the koff /kon, the rate of reactivation of the enzyme to the rate of inactivation of the enzyme. The values of koff and kon are measured and Ki * is then calculated.
The rate of inactivation, kon, of enzymatic activity was determined for the compounds tested by measuring the enzyme activity of an aliquot of the respective enzyme as a function of time after addition of the test compound. […] The rate of inactivation is then equal to [formula] where [I] is the concentration of the inhibiting compound.
The reactivation constant, koff, is similarly determined and the inhibition constant, Ki *, is then calculated as

Ki (human leukocyte elastase, read-out: Ki * values, elastase inhibition (Examples 41-57)) [µM]	Compound	Ki (read-out: Elastase Ki *) [µM]	kon [1] [M⁻¹ s⁻¹]	Elastase 10^-3 × kon [1] [M^-1 sec^-1]	kon [M⁻¹ s⁻¹]
–	CC(C)c1cccc2c1C(=O)N(CSc1nnnn1C)S2(=O)=O [Example 30AN]	0.03	19000	–	–
–	O=C1c2ccccc2S(=O)(=O)N1CSc1nnc(S)s1 [Example 30AH]	0.06	1100	–	–
–	O=C1c2ccccc2C(=O)N1CN1C(=O)c2ccccc2S1(=O)=O [Example 30BF]	40	20	–	–
–	CC(C)(C)CC(C)(C)c1ccc2c(c1)C(=O)N(CSc1nnnn1-c1ccccc1)S2(=O)=O [Example 30A]	10.5	–	–	–
–	CCOC(=O)Cn1nnnc1SCN1C(=O)c2ccccc2S1(=O)=O [Example 30AP]	0.051	1300	–	–
–	COCCOCCOc1ccc(OC)c2c1S(=O)(=O)N(CSc1nnnn1-c1ccccc1)C2=O [Example 30M]	0.01	1000	–	–
–	COC(=O)C(Sc1nnnn1-c1ccccc1)N1C(=O)c2ccccc2S1(=O)=O (centres unmarked) [Example 17, methyl 2-(1-phenyl-1H-tetrazol-5-ylthio)-2-(2-saccharinyl)acetate]	0.27	2900	–	–
–	CCc1cccc2c1C(=O)N(CSc1nnnn1CC(=O)N(C)C)S2(=O)=O [Example 30AV]	0.015	7600	–	–
–	O=C1c2c(-c3ccccc3)cccc2S(=O)(=O)N1CSc1nnnn1-c1ccccc1 [Example 30BC]	–	5800	–	–
–	O=C(O)Cn1nnnc1SCN1C(=O)c2ccccc2S1(=O)=O [Example 34, 2-[1-(2-carboxymethyl)-1H-tetrazol-5-ylthiomethyl]saccharin]	0.256	400	–	–
–	COC(=O)c1cn(-c2ccccc2)c(SCN2C(=O)c3ccccc3S2(=O)=O)n1 [Example 30AR]	0.153	300	–	–
–	COC(=O)c1cc(C(=O)OC)cc(-n2nnnc2SCN2C(=O)c3ccccc3S2(=O)=O)c1 [Example 30E]	0.0127	7300	–	–
–	Cn1nnc(SCN2C(=O)c3ccccc3S2(=O)=O)n1 [Example 30X]	0.143	550	–	–
–	O=C1c2ccccc2S(=O)(=O)N1CSc1nnnn1C1CCCCC1 [Example 9, 2-(1-cyclohexyl-1H-tetrazol-5-ylthiomethyl)saccharin]	–	2500	–	–
–	CC(C)c1cccc2c1C(=O)N(Cn1nnn(-c3cccnc3)c1=S)S2(=O)=O [Example 30Z]	0.0005	70000	–	–
–	O=C1c2ccccc2S(=O)(=O)N1/C=C/CSc1nnnn1-c1ccccc1 [Example 38, trans-2-[3-(1-phenyl-1H-tetrazol-5-ylthio)-1-propenyl]saccharin]	0.002	43000	–	–
–	CCC(CC)c1cccc2c1C(=O)N(CCl)S2(=O)=O [Example 22C, 2-chloromethyl-4-(3-pentyl) saccharin]	0.0004	105000	–	–
–	CCc1cccc2c1C(=O)N(CCl)S2(=O)=O [Example 28]	0.0025	–	50.7	–
–	CC(C)c1cccc2c1C(=O)N(CSc1nnnn1CCN1CCOCC1)S2(=O)=O [Example 30BI]	0.0005	39000	–	–
–	O=C1c2ccccc2S(=O)(=O)N1C(Sc1nnnn1-c1ccccc1)c1ccccc1 (centres unmarked) [Example 19, 2-(1-phenyl-1H-tetrazol-5-ylthiophenylmethyl)saccharin]	8.5	–	–	–
–	CCOc1cccc2c1C(=O)N(CSc1nnnn1-c1ccccc1)S2(=O)=O [Example 30AT]	–	45300	–	–

Ki (human leukocyte elastase, read-out: Ki * values, elastase inhibition (Examples 41-57)) [µM]	Compound	Ki (read-out: Elastase Ki *) [µM]	kon [1] [M⁻¹ s⁻¹]	Elastase 10^-3 × kon [1] [M^-1 sec^-1]	kon [M⁻¹ s⁻¹]
–	CCOc1ccc(OCCOCCOC)c2c1C(=O)N(CSc1nnnn1-c1ccccc1)S2(=O)=O [Example 30L]	0.0076	6500	–	–
–	O=C1c2ccccc2S(=O)(=O)N1CF [Example 27, 2-fluoromethylsaccharin]	0.013	7500	–	–
–	O=C1c2ccccc2S(=O)(=O)N1CSc1nnc(SCCN2CCCCC2)s1 [Example 33C, 2-(5-[2-(1-piperidinyl)-ethylthio]-1,3,4-thiadiazol-2-ylthiomethyl)saccharin]	0.35	200	–	–
–	CC(C)c1cccc2c1C(=O)N(CSc1nnnn1CC(=O)N(C)C)S2(=O)=O [Example 30AW]	0.001	30000	–	–
–	O=C1C=Cc2ccc(OCN3C(=O)c4ccccc4S3(=O)=O)c3cccc1c23 [Example 30G]	0.0077	9300	–	–
–	CCc1cccc2c1C(=O)N(CSc1nnnn1CCN1CCOCC1)S2(=O)=O [Example 30J]	0.01	14000	–	–
–	O=C1c2c(Br)cccc2S(=O)(=O)N1CCl [Example 21, 2-chloromethyl-4-bromosaccharin]	0.0005	950000	–	–
–	O=C1c2ccc([N+](=O)[O-])cc2S(=O)(=O)N1CSc1nnnn1-c1ccccc1 [Example 31C]	0.3	3400	–	–
–	O=C1c2ccccc2S(=O)(=O)N1COc1ccc([N+](=O)[O-])cc1 [Example 15, 2-(4-nitrophenoxymethyl)saccharin]	0.069	3200	–	–
–	CC(C)Oc1cccc2c1C(=O)N(CSc1nnnn1-c1ccccc1)S2(=O)=O [Example 30AU]	–	8900	–	–
–	CN(C)CCSc1nnc(SCN2C(=O)c3ccccc3S2(=O)=O)s1 [Example 33B, 2-(5-[2-(N,N-dimethylamino)-ethylthio]-1,3,4-thiadiazol-2-ylthiomethyl)saccharin]	0.018	4000	–	–
–	Cc1ccc(C)c2c1C(=O)N(CCl)S2(=O)=O [Example 29, 2-chloromethyl-4,7-dimethylsaccharin]	0.12	1100	–	–
–	O=C1c2ccccc2S(=O)(=O)N1CSc1nnnn1CCO [Example 30AQ]	0.26	900	–	–
–	O=C1c2ccccc2S(=O)(=O)N1CSc1nc2ccc([N+](=O)[O-])cc2s1 [Example 30BD]	0.008	11700	–	–
–	CCOc1cccc2c1C(=O)N(CSc1nnnn1CC(=O)N(C)C)S2(=O)=O [Example 30AX]	0.016	7500	–	–
–	O=C1c2ccccc2S(=O)(=O)N1CS(=O)(=O)c1c(Cl)cccc1Cl [Example 32A, 2-(2,6-dichlorophenylsulfonylmethyl)saccharin]	0.145	600	–	–
–	O=C(O)c1ccc(-n2nnnc2SCN2C(=O)c3ccccc3S2(=O)=O)cc1 [Example 30D]	0.085	800	–	–
–	CC(C)c1cccc2c1C(=O)N(CCl)S2(=O)=O [Example 22E, 2-chloromethyl-4-isopropylsaccharin]	0.091	4700	–	–
–	CCOc1cccc2c1C(=O)N(CCl)S2(=O)=O [Example 22H]	0.0012	25000	–	–
–	O=C(O)CCC(=O)Nc1cccc(-n2nnnc2SCN2C(=O)c3ccccc3S2(=O)=O)c1 [Example 35, 2-[1-(3-succinoylaminophenyl)-1H-tetrazol-5-ylthiomethyl]saccharin]	0.022	3600	–	–
–	O=C1c2ccccc2S(=O)(=O)N1CSc1nnnn1-c1cccnc1 [Example 30Q]	0.0704	1380	–	–

Ki (human leukocyte elastase, read-out: Ki * values, elastase inhibition (Examples 41-57)) [µM]	Compound	Ki (read-out: Elastase Ki *) [µM]	kon [1] [M⁻¹ s⁻¹]	Elastase 10^-3 × kon [1] [M^-1 sec^-1]	kon [M⁻¹ s⁻¹]
–	O=C1c2ccccc2S(=O)(=O)N1CSc1nnnn1CCN1CCOCC1 [Example 30BG]	0.05	1700	–	–
–	Cn1nnc(=S)n1CN1C(=O)c2ccccc2S1(=O)=O [Example 30W]	0.08	–	1.5	–
–	Cc1nnc(SCN2C(=O)c3c(C(C)C)cccc3S2(=O)=O)s1 [Example 30AM]	0.0045	12300	–	–
–	O=C1c2ccccc2S(=O)(=O)N1CSc1nc(-c2ccccc2)ns1 [Example 30AF]	0.0125	–	4.2	–
–	Cn1cnnc1SCN1C(=O)c2ccccc2S1(=O)=O [Example 30AC]	–	190	–	–
–	COc1ccc2c(c1OC)C(=O)N(CCl)S2(=O)=O [Example 22F]	0.0065	20000	–	–
1	CC(C)c1cccc2c1C(=O)N(CN1C(=O)CNS1(=O)=O)S2(=O)=O [Example 42D]	–	–	–	–
–	O=C1c2cc([N+](=O)[O-])ccc2S(=O)(=O)N1CSc1nnnn1-c1ccccc1 [Example 11, 5-nitro-2-(1-phenyl-1H-tetrazol-5-ylthiomethyl)saccharin]	–	–	–	4600
–	Nc1cccc(-n2nnnc2SCN2C(=O)c3ccccc3S2(=O)=O)c1 [Example 30C]	0.017	2500	–	–
–	COc1cccc2c1C(=O)N(CCl)S2(=O)=O [Example 22A, 2-chloromethyl-4-methoxysaccharin]	0.006	12400	–	–
–	CCC(C)c1cccc2c1C(=O)N(CCl)S2(=O)=O (centres unmarked) [Example 22B, 2-chloromethyl-4-sec.-butylsaccharin]	0.09	2400	–	–
–	O=C(O)c1cccc(-n2nnn(CN3C(=O)c4ccccc4S3(=O)=O)c2=S)c1 [Example 30-O]	2	30	–	–
–	O=C1c2c(Cl)cccc2S(=O)(=O)N1CSc1nnnn1-c1ccccc1 [Example 4, 4-chloro-2-(1-phenyl-1H-tetrazol-5-ylthiomethyl)saccharin]	0.012	20000	–	–
–	O=C1c2ccccc2S(=O)(=O)N1CSc1nnc(SCCN2CCOCC2)s1 [Example 33, 2-(5-[2-(4-morpholinyl)ethylthio]-1,3,4-thiadiazol-2-ylthiomethyl)saccharin]	0.012	–	–	3600
–	CSc1nn(CN2C(=O)c3ccccc3S2(=O)=O)c(=S)s1 [Example 30AD]	0.0116	7000	–	–
–	CC(C)c1cccc2c1C(=O)N(Cn1nnn(-c3ccccc3)c1=S)S2(=O)=O [Example 30AJ]	0.0155	1800	–	–
–	O=C1c2ccccc2S(=O)(=O)N1Cn1nnn(-c2cccnc2)c1=S [Example 30R]	0.036	2300	–	–
–	O=C1c2cccc(Cl)c2S(=O)(=O)N1CCl [Example 22D]	0.0013	75800	–	–
–	COC(=O)c1cccc2c1C(=O)N(CCl)S2(=O)=O [Example 22G]	0.05	3000	–	–
